{"source": "the supplement of paper PMC10307832", "experiment_in_all_cases": "relative viability (nuclei count vs DMSO), 5 days (fraction); higher = more cells survive", "key": {"[1]": {"test_system": "NCI-H358", "outline": "(§1)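 Each reported value is a median over duplicate plates. It expresses relative viability: treated-well nuclei count divided by vehicle-well nuclei count. Lung cancer cell lines in 1536-well plates were dosed by pin tool a day after seeding, alone with one drug or with a fixed anchor-drug dose plus five library-drug doses (not always all listed) in √10 steps, and nuclei were counted after 5 days.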"}, "[2]": {"test_system": "NCI-H1355", "outline": "as §1"}, "[3]": {"test_system": "NCI-H2228", "outline": "as §1"}, "[4]": {"test_system": "COR-L23", "outline": "as §1"}, "[5]": {"test_system": "NCI-H1755", "outline": "as §1"}, "[6]": {"test_system": "SK-MES-1", "outline": "as §1"}, "[7]": {"test_system": "NCI-H1793", "outline": "as §1"}, "[8]": {"test_system": "COR-L 105", "outline": "as §1"}, "[9]": {"test_system": "HOP-62", "outline": "as §1"}, "[10]": {"test_system": "NCI-H1395", "outline": "as §1"}, "[11]": {"test_system": "NCI-H2170", "outline": "as §1"}, "[12]": {"test_system": "NCI-H1993", "outline": "as §1"}, "[13]": {"test_system": "UMC-11", "outline": "as §1"}, "[14]": {"test_system": "NCI-H1734", "outline": "as §1"}, "[15]": {"test_system": "NCI-H647", "outline": "as §1"}, "[16]": {"test_system": "NCI-H1792", "outline": "as §1"}, "[17]": {"test_system": "NCI-H838", "outline": "as §1"}, "[18]": {"test_system": "HCC-15", "outline": "as §1"}, "[19]": {"test_system": "NCI-H2009", "outline": "as §1"}, "[20]": {"test_system": "NCI-H2347", "outline": "as §1"}, "[21]": {"test_system": "HARA", "outline": "as §1"}}}
{"molecule": "COc1cc2nccc(Oc3ccc(NC(=O)Nc4cc(C)on4)c(Cl)c3)c2cc1OC", "note": "[Tivozanib] + Cc1nc(NC(=O)N2CCC[C@H]2C(N)=O)sc1-c1ccnc(C(C)(C)C(F)(F)F)c1 [Alpelisib] (partner 2 µM)", "values": [{"measurement": "relative viability", "setting": "[1]; first compound 0.005 µM", "result": 0.736}, {"measurement": "relative viability", "setting": "[1]; first compound 0.01581 µM", "result": 0.803}, {"measurement": "relative viability", "setting": "[1]; first compound 0.05 µM", "result": 0.771}, {"measurement": "relative viability", "setting": "[1]; first compound 0.1581 µM", "result": 0.73}, {"measurement": "relative viability", "setting": "[1]; first compound 0.5 µM", "result": 0.94}, {"measurement": "relative viability", "setting": "[2]; first compound 0.005 µM", "result": 0.766}, {"measurement": "relative viability", "setting": "[2]; first compound 0.01581 µM", "result": 0.693}, {"measurement": "relative viability", "setting": "[2]; first compound 0.05 µM", "result": 0.887}, {"measurement": "relative viability", "setting": "[2]; first compound 0.5 µM", "result": 0.882}, {"measurement": "relative viability", "setting": "[3]; first compound 0.005 µM", "result": 0.653}, {"measurement": "relative viability", "setting": "[3]; first compound 0.01581 µM", "result": 0.81}, {"measurement": "relative viability", "setting": "[3]; first compound 0.05 µM", "result": 0.944}, {"measurement": "relative viability", "setting": "[3]; first compound 0.1581 µM", "result": 0.743}, {"measurement": "relative viability", "setting": "[3]; first compound 0.5 µM", "result": 0.72}, {"measurement": "relative viability", "setting": "[4]; first compound 0.005 µM", "result": 0.687}, {"measurement": "relative viability", "setting": "[4]; first compound 0.01581 µM", "result": 0.778}, {"measurement": "relative viability", "setting": "[4]; first compound 0.05 µM", "result": 0.931}, {"measurement": "relative viability", "setting": "[4]; first compound 0.1581 µM", "result": 0.709}, {"measurement": "relative viability", "setting": "[4]; first compound 0.5 µM", "result": 0.582}, {"measurement": "relative viability", "setting": "[5]; first compound 0.005 µM", "result": 0.925}, {"measurement": "relative viability", "setting": "[5]; first compound 0.01581 µM", "result": 0.888}, {"measurement": "relative viability", "setting": "[5]; first compound 0.05 µM", "result": 1.01}, {"measurement": "relative viability", "setting": "[5]; first compound 0.1581 µM", "result": 0.934}, {"measurement": "relative viability", "setting": "[5]; first compound 0.5 µM", "result": 0.84}, {"measurement": "relative viability", "setting": "[6]; first compound 0.005 µM", "result": 0.763}, {"measurement": "relative viability", "setting": "[6]; first compound 0.01581 µM", "result": 1.08}, {"measurement": "relative viability", "setting": "[6]; first compound 0.05 µM", "result": 0.876}, {"measurement": "relative viability", "setting": "[6]; first compound 0.1581 µM", "result": 0.869}, {"measurement": "relative viability", "setting": "[6]; first compound 0.5 µM", "result": 0.857}, {"measurement": "relative viability", "setting": "[7]; first compound 0.005 µM", "result": 0.643}, {"measurement": "relative viability", "setting": "[7]; first compound 0.01581 µM", "result": 0.617}, {"measurement": "relative viability", "setting": "[7]; first compound 0.05 µM", "result": 0.729}, {"measurement": "relative viability", "setting": "[7]; first compound 0.5 µM", "result": 0.705}, {"measurement": "relative viability", "setting": "[8]; first compound 0.01581 µM", "result": 1.2}, {"measurement": "relative viability", "setting": "[8]; first compound 0.05 µM", "result": 0.933}, {"measurement": "relative viability", "setting": "[8]; first compound 0.1581 µM", "result": 1.04}, {"measurement": "relative viability", "setting": "[8]; first compound 0.5 µM", "result": 1.07}, {"measurement": "relative viability", "setting": "[9]; first compound 0.005 µM", "result": 0.72}, {"measurement": "relative viability", "setting": "[9]; first compound 0.01581 µM", "result": 0.729}, {"measurement": "relative viability", "setting": "[9]; first compound 0.05 µM", "result": 1.06}, {"measurement": "relative viability", "setting": "[9]; first compound 0.1581 µM", "result": 0.483}, {"measurement": "relative viability", "setting": "[9]; first compound 0.5 µM", "result": 0.901}, {"measurement": "relative viability", "setting": "[10]; first compound 0.005 µM", "result": 0.951}, {"measurement": "relative viability", "setting": "[10]; first compound 0.01581 µM", "result": 1.08}, {"measurement": "relative viability", "setting": "[10]; first compound 0.05 µM", "result": 1.01}, {"measurement": "relative viability", "setting": "[10]; first compound 0.1581 µM", "result": 1.05}, {"measurement": "relative viability", "setting": "[10]; first compound 0.5 µM", "result": 0.91}, {"measurement": "relative viability", "setting": "[11]; first compound 0.005 µM", "result": 0.885}, {"measurement": "relative viability", "setting": "[11]; first compound 0.01581 µM", "result": 0.952}, {"measurement": "relative viability", "setting": "[11]; first compound 0.05 µM", "result": 0.799}, {"measurement": "relative viability", "setting": "[11]; first compound 0.5 µM", "result": 0.867}, {"measurement": "relative viability", "setting": "[12]; first compound 0.005 µM", "result": 0.657}, {"measurement": "relative viability", "setting": "[12]; first compound 0.01581 µM", "result": 0.741}, {"measurement": "relative viability", "setting": "[12]; first compound 0.05 µM", "result": 0.688}, {"measurement": "relative viability", "setting": "[12]; first compound 0.1581 µM", "result": 0.688}, {"measurement": "relative viability", "setting": "[12]; first compound 0.5 µM", "result": 0.695}, {"measurement": "relative viability", "setting": "[13]; first compound 0.005 µM", "result": 1.11}, {"measurement": "relative viability", "setting": "[13]; first compound 0.01581 µM", "result": 0.846}, {"measurement": "relative viability", "setting": "[13]; first compound 0.05 µM", "result": 0.964}, {"measurement": "relative viability", "setting": "[13]; first compound 0.5 µM", "result": 0.959}, {"measurement": "relative viability", "setting": "[14]; first compound 0.005 µM", "result": 0.656}, {"measurement": "relative viability", "setting": "[14]; first compound 0.01581 µM", "result": 0.66}, {"measurement": "relative viability", "setting": "[14]; first compound 0.05 µM", "result": 0.702}, {"measurement": "relative viability", "setting": "[14]; first compound 0.1581 µM", "result": 0.536}, {"measurement": "relative viability", "setting": "[14]; first compound 0.5 µM", "result": 0.727}, {"measurement": "relative viability", "setting": "[15]; first compound 0.005 µM", "result": 1.22}, {"measurement": "relative viability", "setting": "[15]; first compound 0.01581 µM", "result": 1.17}, {"measurement": "relative viability", "setting": "[15]; first compound 0.05 µM", "result": 1.1}, {"measurement": "relative viability", "setting": "[15]; first compound 0.1581 µM", "result": 0.803}, {"measurement": "relative viability", "setting": "[15]; first compound 0.5 µM", "result": 0.958}, {"measurement": "relative viability", "setting": "[16]; first compound 0.005 µM", "result": 0.728}, {"measurement": "relative viability", "setting": "[16]; first compound 0.01581 µM", "result": 0.778}, {"measurement": "relative viability", "setting": "[16]; first compound 0.05 µM", "result": 0.786}, {"measurement": "relative viability", "setting": "[16]; first compound 0.1581 µM", "result": 0.847}, {"measurement": "relative viability", "setting": "[16]; first compound 0.5 µM", "result": 0.812}, {"measurement": "relative viability", "setting": "[17]; first compound 0.005 µM", "result": 0.984}, {"measurement": "relative viability", "setting": "[17]; first compound 0.01581 µM", "result": 1.04}, {"measurement": "relative viability", "setting": "[17]; first compound 0.05 µM", "result": 1.04}, {"measurement": "relative viability", "setting": "[17]; first compound 0.5 µM", "result": 1.03}, {"measurement": "relative viability", "setting": "[18]; first compound 0.005 µM", "result": 0.917}, {"measurement": "relative viability", "setting": "[18]; first compound 0.01581 µM", "result": 0.839}, {"measurement": "relative viability", "setting": "[18]; first compound 0.05 µM", "result": 0.943}, {"measurement": "relative viability", "setting": "[18]; first compound 0.1581 µM", "result": 0.826}, {"measurement": "relative viability", "setting": "[18]; first compound 0.5 µM", "result": 0.81}, {"measurement": "relative viability", "setting": "[19]; first compound 0.005 µM", "result": 1.16}, {"measurement": "relative viability", "setting": "[19]; first compound 0.01581 µM", "result": 1.08}, {"measurement": "relative viability", "setting": "[19]; first compound 0.05 µM", "result": 1.29}, {"measurement": "relative viability", "setting": "[19]; first compound 0.1581 µM", "result": 1.22}, {"measurement": "relative viability", "setting": "[19]; first compound 0.5 µM", "result": 1.19}, {"measurement": "relative viability", "setting": "[20]; first compound 0.005 µM", "result": 1.01}, {"measurement": "relative viability", "setting": "[20]; first compound 0.01581 µM", "result": 1.03}, {"measurement": "relative viability", "setting": "[20]; first compound 0.05 µM", "result": 1.03}, {"measurement": "relative viability", "setting": "[20]; first compound 0.1581 µM", "result": 1.1}, {"measurement": "relative viability", "setting": "[20]; first compound 0.5 µM", "result": 0.987}, {"measurement": "relative viability", "setting": "[21]; first compound 0.005 µM", "result": 0.911}, {"measurement": "relative viability", "setting": "[21]; first compound 0.01581 µM", "result": 0.838}, {"measurement": "relative viability", "setting": "[21]; first compound 0.05 µM", "result": 0.908}, {"measurement": "relative viability", "setting": "[21]; first compound 0.1581 µM", "result": 0.877}, {"measurement": "relative viability", "setting": "[21]; first compound 0.5 µM", "result": 0.798}]}
